{
  "source": "patent US9918656B2",
  "about": "“Implantable magnetic relaxation sensors and methods of measuring a sensor's cumulative exposure to a biomarker” (Massachusetts Institute of Technology, priority 2010, dated 2018)",
  "system": "murine model",
  "assay": "Doxorubicin cardiotoxicity: change in T2 of explanted myoglobin sensors",
  "details": "myoglobin sensors left in vivo for 72 h after implantation; FIG. 17",
  "description": "FIG. 17 is a chart, illustrating data from experiments using sensors to detect the cardiotoxic effect of the drug Doxorubicin measured by change in T2 of […] sensors.\nDerivatized particles were encapsulated within small diffusion devices. Polycarbonate diffusion membranes (SPI Supplies) were affixed by double-sided adhesive to one side of high-density polyethylene cylinders (thickness=1.6 mm, inner diameter=4.1 mm, outer diameter=7.9 mm). The opposing end was closed off by single-sided adhesive (3M) after the reservoir was filled with 25 μl particle solution. Devices (n=6 per animal) were implanted subcutaneously in the flank. The animals were euthanized and the devices explanted for single-sided relaxometry at specified time points. Devices were sealed with single-sided adhesive and replaced in the implant site for imaging.\nThe application of the sensors to discern drug cardiotoxicity was also studied. Doxorubicin is a potent anthracycline antibiotic that has found wide clinical use as a cancer chemotherapeutic. […] It was confirmed that serum myoglobin increases after doxorubicin administration in a murine model (as illustrated in FIG. 16), although at an order of magnitude lower concentration than after acute MI (10^2 ng/ml versus 10^3 ng/ml). Myoglobin sensors were thus left in vivo for 72 h after implantation (as opposed to 24 h for acute MI). […]",
  "data": [
    {"smiles": "COc1cccc2c1C(=O)c1c(O)c3c(c(O)c1C2=O)C[C@@](O)(C(=O)CO)C[C@@H]3O[C@H]1C[C@H](N)[C@H](O)[C@H](C)O1", "note": "[Doxorubicin]", "values": [
      {"measurement": "sensor T2, experimental versus control groups", "value": "clear distinction in sensor T2 between the experimental and control groups"}
    ]}
  ]
}
